This note sets out measurements from patent US5773646A, “Meta-substituted phenylene derivatives” (G. D. Searle & Co., priority 1997, dated 1998).

Counter-ions that a name gives are not always drawn.

In general, IC50 refers to the point on the concentration scale where inhibition reaches its midpoint.

Experiment [1] has as its target T1, Human vitronectin receptor (αv β3) (Homo sapiens, UniProt P05106+P06756).
T1 construct: Human vitronectin receptor(αv β3) was purified from human placenta; from tissue; host or cells: human placenta
The experiment is described as follows: Vitronectin adhesion assay (solid phase receptor assay, biotinylated vitronectin competition). Type of experiment: binding. The following applies: inhibition of 50% of the maximum binding of biotinylated vitronectin; 1 nM labeled ligand, 2 hours, room temperature, highest concentration of test compound 1.0×10^-4 M; read-out: AvB3 IC50. On the procedure: VITRONECTIN ADHESION ASSAY Human vitronectin receptor(αv β3) was purified from human placenta as previously described [Pytela et al., Methods in Enzymology, 144:475-489 (1987)). Human vitronectin was purified from fresh frozen plasma as previously described [Yatohgo et al., Cell Structure and Function, 13:281-292 (1988)]. Biotinylated human vitronectin was prepared by coupling NHS-biotin from Pierce Chemical Company (Rockford, Ill.) to purified vitronectin as previously described [Charo et al., J. Biol. Chem., 266(3):1415-1421 (1991)]. Assay buffer, OPD substrate tablets, and RIA grade BSA were obtained from Sigma (St. Louis, Mo.). Anti-biotin antibody was obtained from Calbiochem (La Jolla, Calif.). Linbro microtiter plates were obtained from Flow Labs (McLean, Va.). ADP reagent was obtained from Sigma (St. Louis, Mo.). Solid Phase Receptor Assays This assay was essentially the same as previously reported [Niiya et al., Blood, 70:475-483 (1987)]. The purified human vitronectin receptor (αv β3) was diluted from stock solutions to 1.0 μg/mL in Tris-buffered saline containing 1.0 mM Ca^++, Mg^++, and Mn^++, pH 7.4 (TBS^+++). The diluted receptor was immediately transferred to Linbro microtiter plates at 100 μL/well (100 ng receptor/well). The plates were sealed and incubated overnight at 4° C. to allow the receptor to bind to the wells. All remaining steps were at room temperature. The assay plates were emptied and 200 μL of 1% RIA grade BSA in TBS^+++ (TBS^+++ /BSA) were added to block exposed plastic surfaces. Following a 2 hour incubation, the assay plates were washed with TBS^+++ using a 96 well plate washer. Logarithmic serial dilution of the test compound and controls were made starting at a stock concentration of 2 mM and using 2 nM biotinylated vitronectin in TBS^+++ /BSA as the diluent. This premixing of labeled ligand with test (or control) ligand, and subsequent transfer of 50 μL aliquots to the assay plate was carried out with a CETUS Propette robot; the final concentration of the labeled ligand was 1 nM and the highest concentration of test compound was 1.0×10^-4 M. The competition occurred for two hours after which all wells were washed with a plate washer as before. Affinity purified horseradish peroxidase labeled goat antibiotin antibody was diluted 1:3000 in TBS^+++ /BSA and 125 μL were added to each well. After 30 minutes, the plates were washed and incubated with OPD/H2 O2 substrate in 100 mM/L Citrate buffer, pH 5.0. The plate was read with a microtiter plate reader at a wavelength of 450 nm and when the maximum-binding control wells reached an absorbance of about 1.0, the final A450 were recorded for analysis. The data were analyzed using a macro written for use with the EXCEL™ spreadsheet program. The mean, standard deviation, and %CV were determined for duplicate concentrations. The mean A450 values were normalized to the mean of four maximum-binding controls (no competitor added)(B-MAX). The normalized values were subjected to a four parameter curve fit algorithm [Rodbard et al., Int.

For experiment [2], the target named is T2, Human fibrinogen receptor (αIIb β3) (Homo sapiens, UniProt P05106+P08514).
T2 construct: Human fibrinogen receptor (αIIb β3) was purified from outdated platelets; from tissue; host or cells: outdated human platelets
The experiment can be described thus: Purified IIb/IIIa receptor assay (solid phase receptor assay, biotinylated vitronectin competition). Conditions: inhibition of 50% of the maximum binding of biotinylated vitronectin; 1 nM labeled ligand, 2 hours, room temperature, highest concentration of test compound 1.0×10^-4 M. From the text: PURIFIED IIb/IIIa RECEPTOR ASSAY Human fibrinogen receptor (αIIb β3) was purified from outdated platelets. (Pytela, R., Pierschbacher, […]., Suzuki, S., and […] acid adhesion receptors", Methods in Enzymology 144(1987):475-489.) Human vitronectin was purified from fresh frozen plasma as described in Yatohgo, T., Izumi, M., Kashiwagi, H., and Hayashi, M., "Novel purification of vitronectin from human plasma by heparin affinity chromatography," Cell Structure and Function 13(1988):281-292. Biotinylated human vitronectin was prepared by coupling NHS-biotin from Pierce Chemical Company (Rockford, Ill.) to purified vitronectin as previously described. (Charo, […]., Phillips, D. R., Hsu, M. A., Scarborough, R. M., "Inhibition of fibrinogen binding to GP IIb/IIIa by a GP IIIa peptide", J. Biol. Chem. 266(3)(1991):1415-1421.) Assay buffer, OPD substrate tablets, and RIA grade BSA were obtained from Sigma (St. Louis, Mo.). Anti-biotin antibody was obtained from Calbiochem (La Jolla, Calif.). Linbro microtiter plates were obtained from Flow Labs (McLean, Va.). ADP reagent was obtained from Sigma (St. Louis, Mo.). Solid Phase Receptor Assays This assay is essentially the same reported in […]., Bader, R., Byers-Ward, […]., Plow, E. F. and Ruggeri, Z. M., "Increased surface expression of the membrane glycoprotein IIb/IIIa complex induced by platelet activation: Relationships to the binding of fibrinogen and platelet aggregation", Blood 70(1987):475-483. The purified human fibrinogen receptor (αIIb β3) was diluted from stock solutions to 1.0 μg/mL in Tris-buffered saline containing 1.0 mM Ca^++, Mg^++, and Mn^++, pH 7.4 (TBS^+++). The diluted receptor was immediately transferred to Linbro microtiter plates at 100 μL/well (100 ng receptor/well). The plates were sealed and incubated overnight at 4° C. to allow the receptor to bind to the wells. All remaining steps were at room temperature. The assay plates were emptied and 200 μL of 1% RIA grade BSA in TBS^+++ (TBS^+++ /BSA) were added to block exposed plastic surfaces. Following a 2 hour incubation, the assay plates were washed with TBS^+++ using a 96 well plate washer. Logarithmic serial dilution of the test compound and controls were made starting at a stock concentration of 2 mM and using 2 nM biotinylated vitronectin in TBS^+++ /BSA as the diluent. This premixing of labeled ligand with test (or control) ligand, and subsequent transfer of 50 μL aliquots to the assay plate was carried out with a CETUS Propette robot; the final concentration of the labeled ligand was 1 nM and the highest concentration of test compound was 1.0×10^-4 M. The competition occurred for two hours after which all wells were washed with a plate washer as before. Affinity purified horseradish peroxidase labeled goat antibiotin antibody was diluted 1:3000 in TBS^+++ /BSA and 125 μL were added to each well. After 30 minutes, the plates were washed and incubated with […]/H2 O2 substrate in 100 mM/L citrate buffer, pH 5.0. The plate was read with a microtiter plate reader at a wavelength of 450 nm and when the maximum-binding control wells reached an absorbance of about 1.0, the final A450 were recorded for analysis. The data were analyzed using a macro written for use with the EXCELTM spreadsheet program. The mean, standard deviation, and %CV were determined for duplicate concentrations. The mean A450 values were normalized to the mean of four maximum-binding controls (no competitor added)(B-MAX). The normalized values were subjected to a four parameter curve fit algorithm, [Robard et al., Int.

In the case of `NC(=O)Nc1cccc(C(=O)NCc2cccc(CCC(=O)O)c2)c1` [Example 29, 3-[[[[3-[(aminocarbonyl)amino]phenyl]carbonyl]amino]methyl]benzenepropanoic acid], the IC50 was 9.37 µM in experiment [1] and 32 µM in experiment [2].
The corresponding values for `N=C(N)Nc1cccc(S(=O)(=O)Nc2cccc(C3CC(=O)Oc4ccccc43)c2)c1` (stereo not drawn) [Example 100, 3-[(aminoiminomethyl)amino]-N-[3-(3,4-dihydro-2-oxo-2H-benzopyran-4-yl)phenyl]benzenesulfonamide, Trifluoroacetate Salt] are 0.0218 µM and 2.34 µM.
The corresponding values for `NC(=O)Nc1cccc(S(=O)(=O)Nc2cccc(C(CC(=O)O)c3ccccc3)c2)c1` (stereo not drawn) [Example 8, 3-[[[3-[(aminocarbonyl)amino]phenyl]sulfonyl]amino]-β-phenylbenzenepropanoic acid] are 0.641 µM and 11.6 µM.
The corresponding values for `CCOC(=O)CC(c1ccccc1)c1cccc(CNC(=O)c2cccc(NC(=N)N)c2)c1` (stereo not drawn) [Example 37, ethyl 3-[[[[3-[(aminoiminomethyl)amino]phenyl]carbonyl]amino]methyl]-β-phenylbenzenepropanoate, trifluoroacetate salt] are 32.2 µM and 79 µM.
For the compound `O=C(O)CC(c1cc(F)cc(F)c1)c1cccc(NS(=O)(=O)c2cccc(NC=NCc3ccccc3)c2)c1` (stereo not drawn) [Example 84, 3,5-difluoro-β-[3-[[[3-[[[(phenylmethyl)imino]methyl]amino]phenyl]sulfonyl]amino]phenyl]benzenepropanoic Acid, Trifluoroacetate Salt], the values for the concentration for half-maximal inhibition (IC50) in experiment [1] and in experiment [2] were 0.082 µM and 15.1 µM, respectively.
In the same order, the values of `CC(=O)NC(Cc1cccc(CNC(=O)c2cccc(NC(=N)N)c2)c1)C(=O)O` (stereo not drawn) [Example 45, N-acetyl-3-[[[[3-[(aminoiminomethyl)amino]phenyl]carbonyl]amino]methyl)phenylalanine, bis(trifluoroacetate) salt] are 0.0723 µM and 1.37 µM.
In the same order, the values of `CCOC(=O)CCc1cccc(CNC(=O)c2cccc(NC(=O)NCc3ccccc3)c2)c1` [Example 30, ethyl 3-[[[[3-[[[(phenylmethyl)amino]carbonyl]amino]phenyl]carbonyl]amino]methyl]benzenepropanoate] are over 100 µM and over 100 µM.
The corresponding values for `NC(=O)N=C(N)Nc1cccc(S(=O)(=O)Nc2cccc(C(CC(=O)O)c3cc(F)cc(F)c3)c2)c1` (stereo not drawn) [Example 91, β-[3-[[[3-[[amino[(aminocarbonyl)imino]methyl]amino]phenyl]sulfonyl]amino]phenyl]-3,5-difluorobenzenepropanoic Acid, Trifluoroacetate Salt] are 0.00839 µM and 1.07 µM.
Consider `N=C(N)Nc1cccc(/C=C/C(=O)c2cccc(OCC(=O)O)c2)c1` [Example 73, 2-[3-[3-[3-[(aminoiminomethyl)amino]phenyl]-1-oxopropenyl]phenoxy]acetic acid, monohydrochloride], for which the IC50 in experiment [1] came out at 0.589 µM; in experiment [2], 11.3 µM.
In the same order, the values of `N=C(N)Nc1cccc(S(=O)(=O)Cc2cccc(C(CC(=O)O)c3ccccc3)c2)c1` (stereo not drawn) [Example 89, 3-[[[3-[(aminoiminomethyl)amino]phenyl]sulfonyl]methyl]-β-phenylbenzenepropanoic Acid, Trifluoroacetate Salt] are 0.00456 µM and 0.799 µM.
The corresponding values for `N=C(N)Nc1cccc(C(=O)NCCc2cccc(CC(=O)O)c2)c1` [Example 44, 3-[2-[[[3-[(aminoiminomethyl)amino]phenyl]carbonyl]amino]ethyl]benzeneacetic acid, monohydrate trifluoroacetate salt] are 3.21 µM and 0.094 µM.
Turning to `CCC(CC(=O)O)c1cccc(NS(=O)(=O)c2cccc(NC(N)=NC(N)=O)c2)c1` (stereo not drawn) [Example 95, 3-[[[3-[[amino[(aminocarbonyl)imino]methyl]amino]phenyl]sulfonyl]amino]-β-ethylbenzenepropanoic Acid, Trifluoroacetate Salt], the IC50 in experiment [1] was 0.0357 µM; in experiment [2], 8.45 µM.
In the same order, the values of `N=C(N)Nc1cccc(S(=O)(=O)Nc2cccc(C(CC(=O)O)c3cc(F)cc(F)c3)c2)c1` (stereo not drawn) [Example 78, β-[3-[[[3-[(aminoiminomethyl)amino]phenyl]sulfonyl]amino]phenyl]-3,5-difluorobenzenepropanoic Acid, Trifluoroacetate Salt] are 0.00254 µM and 0.803 µM.
For the compound `CCC(CC(=O)O)c1cccc(CNC(=O)c2cccc(NC(=N)N)c2)c1` (stereo not drawn) [Example 42, 3-([[[3-[(aminoiminomethyl)amino]phenyl]carbonyl]amino]methyl]-β-ethylbenzenepropanoic acid, trifluoroacetate salt], the IC50 in experiment [1] worked out at 0.0117 µM; in experiment [2], 0.472 µM.
The corresponding values for `N=C(N)Nc1cccc(NC(=O)Nc2cccc(CCC(=O)O)c2)c1` [Example 51, 3-[[[[3-[(aminoiminomethyl)amino]phenyl]amino]carbonyl]amino]benzenepropanoic acid, trifluoroacetate salt] are 3.09 µM and 10.7 µM.
